Experiment [1] relates to Mouse preadipocyte strain 3T3-L1. The experiment is described as follows: Inhibition of differentiation as an indication of acetic acid uptake. Type of experiment: cell-based. Conditions: control (0.01% dimethylsulfoxide) = 100%; for activity at 0.1 µM: Mus musculus, 3T3-L1, 0.1 μM test substance, read-out: Rate of Uptake (%) of [2-14C] acetic acid; for Rate of Uptake (%) of [2-14C] acetic acid: 0.1 μM test substance. The gist of the method: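 Differentiation is indexed by 1 hr [2-14C]acetic acid incorporation, measured by scintillation counting and given as uptake relative to 0.01% DMSO control (100%). Mouse 3T3-L1 preadipocytes, pre-grown 10 days, received 0.1 μM test substance throughout a 4-day insulin/IBMX/dexamethasone induction, followed by 2 days' maintenance culture.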

Experiment [2] has as its system human colon cancer cells COL-2-JCK. As to the kind of experiment: Inhibition of colony forming activity in human colon cancer cells. As to conditions: 1 μM test compound, 10 days, sum of colony areas vs control; for inhibition at 1 µM: Homo sapiens, 240 h, read-out: Inhibition Rate (%) against the colony forming activity. Type of experiment: cell-based. How it is done: For the medium to culture the human colon cancer cells, D-MEM/F-12 medium containing inactivated bovine fetal serum at a concentration of 10% (GIBCO) was used. The human colon cancer cells COL-2-JCK (purchased from Institute for Experimental Animals) grown in mass formation in a plastic dish for the cell culture with an inner diameter of 100 mm were stripped off from the dish by using EDTA (ethylenediaminetetraacetic acid) and 0.05% trypsin solution. Then, a cell dilution solution was prepared at a concentration of 100 cells/mL solution which was diluted with the medium (D-MEM/F-12).
Three (3) mL of the cell solution were inoculated in each well of a 6-well plastic plate (300 cells/well). The test compound that was dissolved in DMSO solution so as to be a final concentration of 1 μM of the test compound and that of DMSO solution of 0.1% was added to each well. DMSO solution alone was added into the well for the control so as to be a final concentration of 0.1%.
The cells in each well were cultured for 10 days at 37° C. in the presence of 5% CO2. After the culturing was finalised, each well was washed once with Dulbecco-phosphate-buffer-saline solution (bivalent anion). Then, 1.5 ml of neutral buffered formalin solution containing 0.02% crystal violet was added to each well and the plate was kept stationary for 5 min for fixation and staining the cells. After fixation and staining, the cells were washed with water and were air-dried. Then the sum of the colony area (mm^2) of the stained cancer cells was calculated by using an image analyzer PCA-11 (SystemScience). From the calculated values, the inhibition rate (%) of the compound against the colony forming activity was obtained based on the following equation.
Inhibition Rate (%) against the colony forming activity=(1−A/B)×100
A: Sum of Colony Areas in the Group Treated with 1 μM of the Test Compound
B: Sum of Colony Areas in the Control Group

The next experiment addresses T1, human PPAR γ 2 (Homo sapiens, UniProt P37231).
T1 construct: expressed in transfected cells; host or cells: human osteosarcoma MG63, transiently co-transfected with pSG5-hPPARg and the reporter pGV-P2-PPRE
T1 sequence (P37231 1-505): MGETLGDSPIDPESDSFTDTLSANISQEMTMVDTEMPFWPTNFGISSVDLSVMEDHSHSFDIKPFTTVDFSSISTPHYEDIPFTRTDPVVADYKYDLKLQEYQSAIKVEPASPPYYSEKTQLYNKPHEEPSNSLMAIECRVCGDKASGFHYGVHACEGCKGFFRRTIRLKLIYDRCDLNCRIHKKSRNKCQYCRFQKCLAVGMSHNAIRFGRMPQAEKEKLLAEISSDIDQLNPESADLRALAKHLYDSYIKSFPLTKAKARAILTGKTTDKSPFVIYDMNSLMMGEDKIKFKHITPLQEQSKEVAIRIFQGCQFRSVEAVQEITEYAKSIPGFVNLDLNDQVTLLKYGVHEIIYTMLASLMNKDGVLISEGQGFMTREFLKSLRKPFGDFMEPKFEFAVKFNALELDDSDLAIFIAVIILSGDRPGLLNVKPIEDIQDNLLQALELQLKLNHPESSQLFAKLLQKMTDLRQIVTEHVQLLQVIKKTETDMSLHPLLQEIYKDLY
The experiment is described as follows: PPAR γ transcriptional activity, luciferase reporter, test compound alone. Conditions: concentration indicating Emax/2, MG63 cells transfected with pSG5-hPPARg and pGV-P2-PPRE, 24 hr. Format: cell-based. How it is done:
The primers of the polymerase chain reaction (hereinafter “PCR”) were designed according to the gene sequence of human PPAR γ 2 (GenBANK accession No. D83233). In order to insert the genes into the BamHI site of the plasmid pSG5 ([…] CLONING SYSTEMS), Bgl II sites were added upstream and downstream of the genes encoding human PPAR γ 2 protein. For this, 2 kinds of polynucleotides shown in the sequence numbers 1 and 2 in the sequence table described below (hereinafter “S1” and “AS1”, respectively) were used as PCR primers.
In order to determine transcriptional activity via PPAR γ, 2 kinds of polynucleotides represented in sequence numbers 3 and 4 in the sequence table described below (hereinafter “S2” and “AS2”, respectively) were used for construction of the reporter plasmid having PPAR responsive element. The DNA fragment inserted was designed based on the gene sequence in the promoter region of rat acylCo-A oxidase (J. D. Tugwood, EMBO J., 11 (2), pp433-439 (1992)). For insertion of the DNA fragment into the reporter plasmid pGV-P2 (TOYO INK MFG CO., LTD), a NheI site and an XhoI site were added to the S2 and AS2, respectively.
Using cDNA library (Clontech) derived from human adipose tissue as a template, DNA oligomers S1 and AS1 that were synthesized in the procedure 1 as primers and Ex-Taq™ (TAKARA BIO INC.) as a thermostable DNA polymerase-PCR was carried out. As a result of the PCR, the c.a. 1500 bps DNA fragments were amplified. Each cycle consisted of incubation at 94° C. for 1 min for denaturation of the template, then at 55° C. for 30 sec for annealing of DNA oligomers the PCR primer, and then at 72° C. for 30 sec for extension of the chain. The obtained DNA fragments with approximately 1500 base pairs were digested at the Bgl II sites and were inserted into BamHI sites of pSG5. Thus a human PPAR γ expression plasmid named pSG5-hPPAR g was obtained. The nucleotide sequence of the inserted DNA fragment was confirmed to be identical sequence to the human PPAR γ 2 reported by the dideoxy method.
Vector pGV-P2 digestion products was prepared by digestion using the restriction enzymes, NheI and XhoI, and purified by 1.0% agarose-gel electrophoresis. The DNA oligomers, S2 and AS2 obtained in Procedure 2, were mixed together and were incubated in a hot bath at 94° C. for 1 min. After the annealing was partially broken, they were further incubated at 25° C. for 1 hr. Thus double-stranded DNA with annealing of S2 and AS2 was formed. Then, the terminus of the double-stranded DNA with annealing of S2 and AS2 was phosphorylated with DNA polynucleotide kinase (TOYOBO CO., LTD). After that, it was ligated to the pGV-P2 digestion products which were prepared previously using the NheI site and XhoI site. Thus the reporter plasmid pGV-P2-PPRE was obtained.
Using the plasmid obtained by the procedures 3 and 4, transformation of Escherichia coli HB-101 strain was carried out by conventional methods. HB-101 strain having the plasmid was incubated in L-broth medium (containing 10 g of trypton (Difco), 5 g of yeast extract (Difco), 5 g of sodium chloride in 1 L of aqueous solution) containing 100 μg/ml of ampicillin at 37° C. for 17 hrs. Then, each plasmid was purified by the alkaline-SDS method and employed for the gene transfection to mammalian cells. After mixing the pSG5-hPPARg, PGV-P2-PPRE and LipofectAMINE reagent (GIBCO BRL), the human osteosarcoma MG63 was transiently transfected. Then the cells were recovered. The recovered cells were plated on a 96-well plate so as to be 30,000 cells/well and cultured in a CO2 incubator (NAPCO) at 37° C. for 24 hr under the condition of 5% CO2, 95%-RH.
Various concentrations of the test compound alone were added to culturing medium of the cells prepared in the Procedure 5. After 24 hr of culturing, LT2.0 (TOYO INK MFG CO., LTD), a luciferase substrate, was added to the medium free culture plate. […]

For another experiment, the system named is leptin production. The experiment is described as follows: Enhancing activity for leptin production in adipocytes (ELISA). Format: cell-based, rat. Conditions: 24 hr, leptin concentration as % of control group. In a few lines:
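Leptin release, quantified by rat leptin ELISA, expressed as percent of 0.1% DMSO control after 24 h at 37 °C. Cells were floating adipocytes isolated by collagenase digestion of epididymal fat from male 6-week Wistar Imamichi rats; compound tested at 1 nM–1 µM final.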
On the technique in general: An ELISA detects its analyte on a solid surface through an enzyme-linked reagent.

Another experiment deals with Rat white adipocytes. As to the kind of experiment: Inhibition of the differentiation of adipocytes (Oil Red O). As to conditions: Rattus norvegicus, Adipocyte, 120 h, 100 nM test compound; 5 days; Oil Red O ABS550; control = 100%, blank = 0%; Table 3; read-out: Rate of Differentiation (%). Type of experiment: cell-based. In a few lines:
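Rat white preadipocytes, 5,000 cells/well, given differentiation medium with compound at 100 nM final (0.1% DMSO) for 5 days at 37 °C. Lipid stained with Oil Red O, eluted in DMSO, read at 550 nm; differentiation % relative to DMSO control (100%) and blank (0%).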

Molecules are shown by their SMILES.

A word on the inhibition: it is the relative decrease from the control value, in per cent. As usually defined, the EC50 is the concentration at which the effect is half-maximal. A higher EC50 goes with weaker potency.

Consider `Cc1cccc(NC(=O)c2cc([N+](=O)[O-])ccc2Cl)c1` [Example 11, N-(3-Methylphenyl)-(2-chloro-5-nitrophenyl)carboxamide], for which, in experiment [1], the activity at 0.1 µM amounted to 67.3%. The inhibition at 1 µM in experiment [2] amounted to 15%.
`CC(C)(C)OC(=O)Nc1ccc(NC(=O)c2cc([N+](=O)[O-])ccc2Cl)cc1` [Example 45, N-[4-(tert-Butyloxycarbonylaminophenyl)]-(2-chloro-5 nitrophenyl)carboxamide]: the “Rate of Uptake (%) of [2-14C] acetic acid” value in experiment [1] stood at 68.9%. Moreover, the “Inhibition Rate (%) against the colony forming activity” value in experiment [2] was 32.0%.
For the compound `Cc1cnc(NC(=O)c2cc([N+](=O)[O-])ccc2Cl)c(C)c1` [Example 74, N-(3,5-Dimethylpyriridin-2-yl)-(2-chloro-5-nitrophenyl)carboxamide], the “Rate of Uptake (%) of [2-14C] acetic acid” value in experiment [1] is on record as 70.4%. This compound displayed an EC50 at human PPAR γ 2 of 5.1 nM.
As to `COC(=O)c1cscc1NC(=O)c1cc([N+](=O)[O-])ccc1Cl` [Example 76, N-(4-Methoxycarbonylthiophen-3-yl)-(2-chloro-5-nitrophenyl)carboxamide], the activity at 0.1 µM in experiment [1] is 54.3%. In addition, at human PPAR γ 2, the EC50 came out at 120 nM.
As for `CCOC(=O)c1c(NC(=O)c2cc([N+](=O)[O-])ccc2Cl)sc2c1CCCC2` [Example 79, N-[3-Carboethoxy-4,5,6,7-tetrahydrobenzo[b]thiophen-2-yl]-(2-chloro-5-nitrophenyl)carboxamide], in experiment [1], the activity at 0.1 µM came to 41.5%. For the same compound, at human PPAR γ 2, the response was half-maximal at 68 nM (EC50).
Take `Cc1cc(NS(=O)(=O)c2ccc(NC(=O)c3cc([N+](=O)[O-])ccc3Cl)cc2)nc(C)n1` [Example 98, N-[[4-(2,6-Dimethylpyrimidin-4-yl)aminosulfonyl]phenyl]-(2-chloro-5-nitrophenyl)carboxamide]: the “Rate of Uptake (%) of [2-14C] acetic acid” value in experiment [1] is listed as 89.1%. Also, the “Facilitating activity to produce leptin” value was 117.0% in the experiment with leptin production (1 μM) and 110.1% with leptin production (100 nm). In addition, the “Inhibition Rate (%) against the colony forming activity” value in experiment [2] came out at 25.0%.
`O=C(Nc1ccc(S(=O)(=O)Nc2ccccn2)cc1)c1cc([N+](=O)[O-])ccc1Cl` [Example 100, N-[4-[(Pyridin-2-yl)aminosulfonyl]phenyl]-(2-chloro-5-nitrophenyl)carboxamide]: the inhibition at 1 µM in experiment [2] amounted to 50%.
Turning to `O=C(Nc1ccc(S(=O)(=O)Nc2ccc3cn[nH]c3c2)cc1)c1cc([N+](=O)[O-])ccc1Cl` [Example 103], the activity at 0.1 µM in experiment [1] came out at 72.1%. For the same compound, the EC50 at human PPAR γ 2 was found to be 8.8 nM.
Take `CCCCNC(=O)NS(=O)(=O)c1ccc(NC(=O)c2cc([N+](=O)[O-])ccc2Cl)cc1` [Example 107, N-[4-(Butylaminocarbonylaminosulfonyl)phenyl]-(2-chloro-5-nitrophenyl)carboxamide]: the activity at 0.1 µM in experiment [1] was found to be 71.3%. In addition, at human PPAR γ 2, a half-maximal effect (EC50) was put at 88 nM.
Turning to `COC(=O)c1cccc(NC(=O)c2cc([N+](=O)[O-])ccc2Cl)c1` [Example 143, Methyl 3-(2-chloro-5-nitrobenzoylamino)benzoate], the activity at 0.1 µM in experiment [1] was determined as 60.1%; in the experiment on Rat white adipocytes, 84.9%. For the same compound, the inhibition at 1 µM in experiment [2] worked out at 25%.
Turning to `O=C(Nc1ccc(O)cc1)c1cc([N+](=O)[O-])ccc1Cl` [Example 193, N-(4-Hydroxyphenyl)-(2-chloro-5-nitrophenyl)carboxamide], the activity at 0.1 µM in the experiment with Rat white adipocytes was found to be 62.4%. At human PPAR γ 2, this compound showed an EC50 of 31 nM.

For the origin of these results see patent publication US20030134859A1 (SANKYO COMPANY, LIMITED, priority 2000, published 2003).
